Data from patent publication US12461089B2, “Olfactory receptor involved in the perception of musk fragrance and the use thereof” (ChemoSensoryX Biosciences SA, priority 2017, dated 2025).
Changes are numbered by the printed parent chain. Where two headings read alike, the source gives them in different places.

Columns and labels:
Format in all cases: cell-based
OR5A2_variant 1 [1] = target: T1, OR5A2_variant 1 (Homo sapiens, UniProt Q8NGI9); assay: Luciferase reporter concentration-response analysis on OR5A2_variant 1; settings: for activation of OR5A2 (OR5A2_variant 1), concentration-response: CRE-luciferase, semi-logarithmic serial dilutions, empty vector pEFIBRHO as control
T1 construct: expressed in transfected cells; host or cells: HEK293T-RTP1A1/RTP2
T1 sequence (Q8NGI9 1-324): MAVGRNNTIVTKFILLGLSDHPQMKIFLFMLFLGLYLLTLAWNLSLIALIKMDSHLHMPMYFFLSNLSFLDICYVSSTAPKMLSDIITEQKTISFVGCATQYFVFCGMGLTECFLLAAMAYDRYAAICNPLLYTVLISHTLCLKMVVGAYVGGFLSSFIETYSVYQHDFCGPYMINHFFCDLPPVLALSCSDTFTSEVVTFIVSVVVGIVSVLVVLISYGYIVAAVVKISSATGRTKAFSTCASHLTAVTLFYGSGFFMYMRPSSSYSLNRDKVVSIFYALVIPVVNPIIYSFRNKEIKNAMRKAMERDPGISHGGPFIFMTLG
Description: (§1) HEK293T-RTP1A1/RTP2 cells were maintained in minimal essential medium (EMEM, Lonza) containing 10% fetal bovine serum (M10). These cells were generated by transfecting HEK293T with an expression vector containing the sequences of the chaperone proteins RTP1A1 and RTP2 and a resistance gene to puromycin, using Lipofectamine 2000.
(§2) Odorant molecules were diluted at a concentration of 1 mole/liter (M) into dimethyl sulfoxide (DMSO) to generate stock solutions.
(§3) For concentration-response analysis, serial dilutions of the tested molecules were prepared from stock solutions in EMEM plated into 96-well plates.
(§4) For the initial deorphanisation screening and dose-response analysis, a Luciferase-based gene reporter assay (Promega, Leiden, The Nederlands) was used. Briefly, cells were platted on Poly-D-lysine-coated 96-well and transfected with a plasmid containing the CRE-luciferase and a plasmid containing the olfactory receptor. Sixteen hours after transfection, the culture medium was replaced by serum-free EMEM containing the tested compounds at a determined concentration. After four hours of incubation at 37° C. degree, cells were lysed and processed for luminescence measurement. Luminescene emission was recorded. Results were expressed as luciferase activity (Relative […] Unit (RLU)) or as percentage of the response induced by 10 μM of the adenylate cyclase activator Forskolin. An empty plasmid is used as negative control.
(§5) 35 musk compounds from the four structurally different chemical groups previously described were tested in concentration-response analyses (Table 2). In each experiment, an empty vector was used as negative control (pEFIBRHO). […] Full results including the calculated EC50 are given in Table 2; “non active” represent negative experiments, no activation after testing.

OR5A1 = target: T2, OR5A1 (Homo sapiens, UniProt Q8NGJ0); assay: Luciferase reporter concentration-response analysis on OR5A1; settings: CRE-luciferase; empty vector pEFIBRHO as control
T2 construct: expressed in transfected cells; host or cells: HEK293T-RTP1A1/RTP2
T2 sequence (Q8NGJ0 1-315): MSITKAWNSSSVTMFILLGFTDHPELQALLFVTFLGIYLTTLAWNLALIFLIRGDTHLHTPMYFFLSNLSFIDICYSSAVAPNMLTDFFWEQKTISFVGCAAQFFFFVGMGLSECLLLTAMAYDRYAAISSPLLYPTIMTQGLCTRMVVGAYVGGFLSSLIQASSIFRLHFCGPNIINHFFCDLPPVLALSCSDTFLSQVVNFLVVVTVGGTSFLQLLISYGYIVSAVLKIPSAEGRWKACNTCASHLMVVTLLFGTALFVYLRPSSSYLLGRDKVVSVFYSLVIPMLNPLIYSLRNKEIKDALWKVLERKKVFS
Description: as §1, with “2000. The recombinant cell population, used in these experiments, was selected by adding 10 μg/ml of puromycin into the culture medium and subsequently subcloned (WO 2014/191047 A1).” for “2000.”
as §2, §3
as §4, with “Briefly, cells were platted on Poly-D-lysine-coated 96-well and transfected with a plasmid containing the CRE-luciferase and a plasmid containing the olfactory receptor.” left out, “An empty plasmid is used as negative control.” left out

OR5AN1 = target: T3, OR5AN1 (Homo sapiens, UniProt Q8NGI8, E89G); assay: Luciferase reporter concentration-response analysis on OR5AN1
T3 construct: expressed in transfected cells; host or cells: HEK293T-RTP1A1/RTP2
T3 sequence (Q8NGI8 1-311 E89G): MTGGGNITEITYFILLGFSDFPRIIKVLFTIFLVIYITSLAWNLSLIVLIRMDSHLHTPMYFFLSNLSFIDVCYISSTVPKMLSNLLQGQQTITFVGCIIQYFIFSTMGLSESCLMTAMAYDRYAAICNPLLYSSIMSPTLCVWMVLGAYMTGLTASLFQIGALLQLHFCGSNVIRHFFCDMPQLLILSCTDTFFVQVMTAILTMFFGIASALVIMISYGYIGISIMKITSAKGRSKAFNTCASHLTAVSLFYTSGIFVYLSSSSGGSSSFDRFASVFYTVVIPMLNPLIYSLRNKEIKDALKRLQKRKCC
Description: as §1, with “2000. The recombinant cell population, used in these experiments, was selected by adding 10 μg/ml of puromycin into the culture medium and subsequently subcloned (WO 2014/191047 A1).” for “2000.”
as §2, §3, §4
In these analyses we also included ORs previously described as musk-specific receptors OR5AN1 (SEQ ID n° 7) (WO 2015/020158 A1, Shirasu et al. 2014 Neuron 81, 165-78, Sato-Akuhara N et al. 2016 J Neurosci. 36(16), 4482-91) and OR11A1 (SEQ ID n° 8) (WO 2016/201152 A1). […] Therefore, OR5A1 was included in the analyses. 35 musk compounds from the four structurally different chemical groups previously described were tested in concentration-response analyses (Table 2). In each experiment, an empty vector was used as negative control (pEFIBRHO). […] Full results including the calculated EC50 are given in Table 2; “non active” represent negative experiments, no activation after testing. […]

OR11A1 = target: T4, OR11A1 (Homo sapiens, UniProt Q9GZK7); assay: Luciferase reporter concentration-response analysis on OR11A1
T4 construct: expressed in transfected cells; host or cells: HEK293T-RTP1A1/RTP2
T4 sequence (Q9GZK7 1-315): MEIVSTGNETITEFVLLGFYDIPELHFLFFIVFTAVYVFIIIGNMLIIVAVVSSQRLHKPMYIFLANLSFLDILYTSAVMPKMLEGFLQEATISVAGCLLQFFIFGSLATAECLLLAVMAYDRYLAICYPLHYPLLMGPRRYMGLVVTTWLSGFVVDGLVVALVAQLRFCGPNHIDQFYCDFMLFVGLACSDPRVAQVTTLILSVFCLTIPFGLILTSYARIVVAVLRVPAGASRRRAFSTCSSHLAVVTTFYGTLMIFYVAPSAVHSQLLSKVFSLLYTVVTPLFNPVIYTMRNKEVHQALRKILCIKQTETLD
Description: as §1, §2, §3, §4, §5
These compounds were tested in concentration-response analysis in luciferase assays, as described previously. In each experiment, an empty vector was used as negative control (pEFIBRHO).

chimeric OR5A2_variant 1 = target: T5, chimeric OR5A2_variant 1 (Homo sapiens, UniProt Q8NGI9, F293L/H55R/I289L/M58T); assay: Luciferase reporter concentration-response analysis on chimeric OR5A2_variant 1; settings: CRE-luciferase, empty vector pEFIBRHO as control
T5 construct: expressed in transfected cells; host or cells: HEK293T-RTP1A1/RTP2
T5 sequence (Q8NGI9 with tags, fused parts or gaps H55R/M58T/I289L/F293L): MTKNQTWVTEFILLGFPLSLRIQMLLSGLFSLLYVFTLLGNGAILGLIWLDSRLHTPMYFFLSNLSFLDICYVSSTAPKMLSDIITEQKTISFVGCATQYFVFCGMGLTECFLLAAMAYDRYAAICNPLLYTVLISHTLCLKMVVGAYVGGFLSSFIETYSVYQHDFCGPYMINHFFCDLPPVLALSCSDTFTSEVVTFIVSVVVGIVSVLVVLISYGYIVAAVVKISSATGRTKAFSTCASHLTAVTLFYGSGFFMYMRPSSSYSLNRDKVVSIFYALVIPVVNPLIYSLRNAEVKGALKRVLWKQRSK
Description: as §1, §2, §3, §4
(§6) To test if the amino acids substitution could impact the musk sensitivity, and specificity and to validate the Krautwurst's model, luciferase assays were performed as described previously after transfection of the chimeric OR5A2_variant 1. Cells were treated with semi-logarithmic serial dilutions of musk compounds from the four structurally different groups described earlier.
In each experiment, an empty vector was used as negative control (pEFIBRHO).

OR5A2_variant 2 = target: T6, OR5A2_variant 2 (Homo sapiens, UniProt Q8NGI9, P172L); assay: Luciferase reporter concentration-response analysis on haplotype OR5A2_variant 2 (P172L); settings: CRE-luciferase; empty vector pEFIBRHO as control
T6 construct: (P172L, OR5A2_variant 2); expressed in transfected cells; host or cells: HEK293T-RTP1A1/RTP2
T6 sequence (Q8NGI9 1-324 P172L): T1 sequence (Q8NGI9 1-324) with P172L
Description: as §1, §2, §3, §4
OR genes are highly variable, with many alleles resulting in differences in smell perception from person to person. These differences can be attributed to genetic variations like, for example, nucleotide polymorphisms. […] Amino acids alignment of the 2 haplotypes are represented in FIG. 4.
To test if the substitution could impact the musk sensitivity, luciferase assays were performed as described previously after transfection of both OR5A2 variants. Cells were treated with semi-logarithmic serial dilutions of musk compounds from the four structurally different groups described earlier. In each experiment, an empty vector was used as negative control (pEFIBRHO).

OR2A5 = target: T7, OR2A5 (Homo sapiens, UniProt Q96R48, A202S/A255T/I126V); assay: Luciferase reporter concentration-response analysis on OR2A5; settings: CRE-luciferase
T7 construct: expressed in transfected cells; host or cells: HEK293T-RTP1A1/RTP2
T7 sequence (Q96R48 1-311 I126V/A202S/A255T): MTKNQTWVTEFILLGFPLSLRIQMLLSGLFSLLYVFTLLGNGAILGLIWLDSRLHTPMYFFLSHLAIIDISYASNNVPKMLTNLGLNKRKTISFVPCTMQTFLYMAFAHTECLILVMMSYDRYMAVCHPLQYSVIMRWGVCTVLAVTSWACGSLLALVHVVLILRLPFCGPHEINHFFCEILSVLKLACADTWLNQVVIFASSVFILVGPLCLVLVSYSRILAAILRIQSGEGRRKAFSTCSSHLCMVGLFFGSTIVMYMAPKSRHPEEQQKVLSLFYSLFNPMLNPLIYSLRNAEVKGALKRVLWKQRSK
Description: as §1, with “2000. The recombinant cell population, used in these experiments, was selected by adding 10 μg/ml of puromycin into the culture medium and subsequently subcloned (WO 2014/191047 A1).” for “2000.”
as §2, §3, §4
In 1998, Krautwurst and collaborators have provided a model system for the study of ligand specificity and structure-function relationships for olfactory receptors (Krautwurst et al., 1998 Cell 95, 917-26). […] Based on their publication, a chimeric OR5A2_variant 1 olfactory receptor was created containing the TM2-TM7 amino acid sequence of OR5A2_variant 1 flanked by the N-teminal and C-terminal sequence of the olfactory receptor OR2A5 (cf. SEQ ID NO: 12). This chimeric OR5A2_variant 1 receptor shared 86 percent identity with the native OR5A2_variant 1 receptor (FIG. 6A and SEQ ID NO: 10).
as §6

OR5A2_variant 1 [2] = target: T1, OR5A2_variant 1; assay: Luciferase reporter deorphanisation screening of odorant libraries (891 compounds) on OR5A2; settings: HEK293T-RTP1A1/RTP2 cells; each compound at 1 mM, 316 μM, 100 μM; hit = luciferase activity >= median + 2 standard deviations
Description: as §1, §2
For screening experiments, stock solutions of odorant molecules were diluted in EMEM disposed in 96-well plates.
as §4

[3] = CRE-luciferase, empty vector pEFIBRHO as control
[4] = concentration-response analysis, luciferase reporter, values given as negative (log) numbers, read-out: calculated EC50, OR5A2 (converted)

activation of OR5A2 (OR5A2_variant 1), concentration-response (OR5A2_variant 1 [1]) | activation of chimeric OR5A2_variant 1, concentration-response (chimeric OR5A2_variant 1) | EC50 (OR5A2_variant 1 [1]; [4]) [µM] | activation of OR5A2_variant 2 (P172L), concentration-response (OR5A2_variant 2) | activation of OR2A5, concentration-response (OR2A5) | response of the OR of the invention (luciferase activity, hit) in library screening (OR5A2_variant 1 [2]) | Compound | other results
shows dose response curves | shows dose response curves | 17.8 | not activated | but not the OR2A5 |  | CC1C(C)(C)C2=C(C(=O)CCC2)C1(C)C (stereo not shown) [Cashmeran] | EC50 (OR11A1; concentration-response analysis, luciferase reporter, values given as negative (log) numbers, Non Active = no activation after testing, read-out: calculated EC50, OR11A1 (converted)): 21.4 µM
 |  | 49 |  |  | respond specifically and exclusively | O=C1CCCCCCCCCCCC(=O)OCCO1 [Ethylene Brassylate] | EC50 (OR5AN1; concentration-response analysis, luciferase reporter, values given as negative (log) numbers, Non Active = no activation after testing, read-out: calculated EC50, OR5AN1 (converted)): 66.1 µM
shows dose response curves | shows dose response curves |  | not activated | but not the OR2A5 | respond specifically and exclusively | CC(OC(C)(C)COC(=O)C1CC1)C1CCCC(C)(C)C1 (stereo not shown) [Serenolide] | EC50 (OR5A2_variant 1 [1]): 21.9 µM

Compound | activation of OR5A2 (OR5A2_variant 1), concentration-response (OR5A2_variant 1 [1]) | activation of chimeric OR5A2_variant 1, concentration-response (chimeric OR5A2_variant 1) | EC50 (OR5A2_variant 1 [1]; [4]) [µM] | activation of OR5A2_variant 2 (P172L), concentration-response (OR5A2_variant 2) | activation of OR2A5, concentration-response (OR2A5) | response of the OR of the invention (luciferase activity, hit) in library screening (OR5A2_variant 1 [2]) | other results
CCC1(O)C2(C)CCC(C2)C1(C)C (stereo not shown) [2 ethyl-fenchol] | stimulated neither | not activated |  |  |  |  | activation of OR5A1, concentration-response (OR5A1): able to activate OR11A1 only; activation of OR5AN1, concentration-response (OR5AN1; [3]): stimulated neither; activation of OR11A1, concentration-response (OR11A1; [3]): able to activate OR11A1 only; activation of chimeric OR5A2_variant 1, concentration-response (chimeric OR5A2_variant 1; listed as ethyl-fenchol): not able to activate
C[C@H]1CC(C)(C)C2=C(C[C@@]3(C)O[C@H]3C2)C1(C)C [malaxone] |  |  |  |  |  | respond specifically and exclusively | 
